Where two headings read alike, the source gives them in different places.

The test system of series [1] is bcl-2. In words: Expression of the antiapoptotic gene bcl-2 in the hippocampus of ovariectomised rats. The class given is in vivo, Ratten. The conditions noted are these: female ovariectomised rats; vs OVX control (p<0.01); Abbildung 4.
The test system of series [2] is Oxytocin (Nachweis der OT mRNA). In words: Induction of the estrogen-dependent oxytocin gene (OT mRNA) in the brain of ovariectomised rats. Particulars: brain of female ovariectomised rats; Abbildung 3. The class given is in vivo, Ratten. The text has this: (§1) In Abbildung 3 werden zwei weitere Beispiele für typische Estrogenwirkungen im Gehirn von weiblichen, ovarektomierten Ratten dargestellt. […] (* Bedeutet statistisch signifikant gegenüber der Kontrollgruppe (p<0.01))

The test system of series [3] is Corticotropin-Releaseinghormon (Nachweis der CRH mRNA). In words: Induction of the estrogen-dependent CRH gene (CRH mRNA) in the brain of ovariectomised rats. The class given is in vivo, Ratten. The conditions noted are these: brain of female ovariectomised rats; Abbildung 3.
From the text: as §1

Series [4] in a line: Stabilisation of the unstable steroids in drug formulations by stabilisers. The format is physicochemical. From the text: Eine hinreichende Haltbarkeit der an sich sehr instabilen Steroide in Arzneimittelformulierungen wird insbesondere erreicht, wenn ein Stabilisator vorliegt. […] In einer bevorzugten Ausführungsform des erfindungsgemäßen Arzneimittels wird deshalb das Steroid mit Ascorbinsäure stabilisiert. […] Die Konzentration des Stabilisators Ascorbinsäure ist vom Gehalt des Steroids abhängig. Je nach dessen Gehalt werden bei Weichgelatinekapseln 0,1 % bis 1 % Ascorbinsäure, bezogen auf die Füllmasse, eingesetzt.

The conditions of series [5]: 100 mg/Tag oral; Arlt et al., New Engl J Med 1999; cited from earlier work.
The nature of series [6]: Clinical study in healthy women: serum testosterone after oral DHEA, with dexamethasone suppression. The conditions noted are these: single dose of dexamethasone, 100 mg DHEA oral, Abbildung 5. The class given is in vivo, Frauen. From the text:
In Abbildung 5 werden daher Ergebnisse einer klinischen Studie mit gesunden Frauen dargestellt. Zur kurzzeitigen Unterdrückung der körpereigenen Steroidproduktion erhielten die Probandinnen einmalig Dexamethason. […] Damit ist der Nachweis geführt, daß DHEA bei Frauen nach oraler Aufnahme im Körper zu dem sehr wirksamen Androgen Testosteron umgewandelt wird, d.h. DHEA ist bei Frauen ein Prodrug für Testosteron.

In series [7] the test system is Uterus. As to the kind of experiment: Estrogenic effect on the uterus (uterine mass) of ovariectomised rats. The format is in vivo, Ratten. The conditions noted are these: female ovariectomised rats, in contrast to 17β-Estradiol; for estrogene Wirkung auf den Uterus (Zunahme der Uterusmasse): Abbildung 3.
Series [8] has as its system induzierbaren Stickstoffmonoxid-Oxidase (iNOS). In words: Inhibition of NO release (iNOS) in the brain of ovariectomised rats. Particulars: female ovariectomised rats; compared with 17β-Estradiol; Abbildung 2; significant vs OVX control (p<0.01). The class given is in vivo, Ratten. The text has this:
Eine der typischen Estrogenwirkungen im Gehirn ist die Hemmung der induzierbaren […] (iNOS). […] Die Kontrollgruppe sind ovarektomierte Tiere (OVX), die nur mit dem Lösungsmittel behandelt worden sind. (* Bedeutet statistisch signifikant gegenüber der Kontrollgruppe (p<0.01))

Consider `C[C@]12CC[C@@H]3c4ccc(O)cc4CC[C@H]3[C@@H]1CC[C@H]2O` [17α-Estradiol], for which the “Expression des antiapoptotischen Gens bcl-2 im Hippocampus” value in series [1] was “im Gegensatz”.
As to `C[C@]12CC[C@@H]3c4ccc(O)cc4CC[C@H]3[C@@H]1CC[C@@H]2O` [17β-Estradiol, reference compound], in series [1], the “Expression des antiapoptotischen Gens bcl-2 im Hippocampus” value is reported as “signifikant erhöht”. In addition, the “Induktion der estrogenabhängigen Gene für Oxytocin (OT mRNA)” value in series [2] is reported as “gelingt”. The “Induktion der estrogenabhängigen Gene für Corticotropin-Releaseinghormon (CRH mRNA)” value in series [3] is on record as “gelingt”.
`O=C1O[C@H]([C@@H](O)CO)C(O)=C1O` [Ascorbinsäure]: in series [4] (stabiliser added to the steroid formulation), the “stabilisierende Wirkung (Haltbarkeit der Steroide in Arzneimittelformulierungen)” value (shortened to “stabilisierende Wirkung”) is reported as “besonders wirksam”.
Regarding `CCCCCCCCCCCCCCCC(=O)OC[C@H](O)[C@H]1OC(=O)C(O)=C1O` [Ascorbylpalmitat], the “stabilisierende Wirkung” value in series [4] is on record as “deutlich weniger effektiv”.
With `COc1ccc(O)c(C(C)(C)C)c1` [Butylhydroxyanisol], the “stabilisierende Wirkung” value in series [4] is given as “deutlich weniger effektiv”.
Regarding `Cc1cc(C(C)(C)C)c(O)c(C(C)(C)C)c1` [Butylhydroxytoluol], the “stabilisierende Wirkung” value in series [4] is listed as “deutlich weniger effektiv”.
As to `C[C@]12CC[C@H](O)CC1=CC[C@@H]1[C@@H]2CC[C@]2(C)C(=O)CC[C@@H]12` [DHEA, Dehydroepiandrosteron], the “unerwünschte Virilisierungserscheinungen” value in series [5] is recorded as “keine unerwünschten Virilisierungserscheinungen”. The Serum-Testosteronkonzentrationen entry in series [6] is on record as “auf das Niveau der unbehandelten Kontrollen hebt”.
As to `C[C@]12CCC3=C(CCc4cc(O)ccc43)[C@@H]1CC[C@H]2O` [J 811, Estra-1,3,5(10),8-tetraen-3,17α-diol], the “estrogene Wirkung auf den Uterus (Zunahme der Uterusmasse)” value in series [7] was “nicht nachweisbar”. Moreover, in series [8], the “Hemmung der Freisetzung von NO” value was “genauso stark wie bei dem wichtigsten körpereigenen Estrogen, dem 17β-Estradiol”. Besides, the “Induktion der estrogenabhängigen Gene für Oxytocin (OT mRNA)” value in series [2] was “gelingt”. Moreover, the “Induktion der estrogenabhängigen Gene für Corticotropin-Releaseinghormon (CRH mRNA)” value in series [3] is on record as “gelingt”.
Turning to `C[C@]12CCC3=C(CCc4cc(O)ccc43)[C@@]13C[C@H]3C[C@H]2O` [J 861, 14α, 15α-Methylenestra-1,3,5(10),8-tetraen-3,17α-diol], in series [7], the “estrogene Wirkung auf den Uterus (Zunahme der Uterusmasse)” value is “nicht nachweisbar”. Further, the “Wirkung auf den Uterus” value in series [7] (Abbildung 4) is given as “keinerlei Wirkung auf den Uterus”. Further, the “Expression des antiapoptotischen Gens bcl-2 im Hippocampus” value in series [1] is recorded as “signifikant erhöht”. The “Hemmung der Freisetzung von NO” value in series [8] is given as “genauso stark wie bei dem wichtigsten körpereigenen Estrogen, dem 17β-Estradiol”. The “Induktion der estrogenabhängigen Gene für Oxytocin (OT mRNA)” value in series [2] is listed as “gelingt”. Moreover, the “Induktion der estrogenabhängigen Gene für Corticotropin-Releaseinghormon (CRH mRNA)” value in series [3] is given as “gelingt”.

The values above are taken from patent EP1350541A1, “Use of dehydroepiandrosterone and an estradiol derivative for preparing a medicament for treating postmenopausal climacteric disorders” (priority 2002, dated 2003).
